Source: patent publication US20120295907A1, “INSECTICIDAL COMPOUNDS” (SYNGENTA CROP PROTECTION, LLC, priority 2009, published 2012)

Key:
[1] = test system: Plutella xylostella; test: Plutella xylostella (Diamond Back Moth) artificial diet MTP test; type: in vivo; conditions: 144 h, 200 ppm (concentration in well 18 ppm), L2 larvae, 6 days, larval mortality, growth regulation
[2] = test system: Spodoptera littoralis; test: Spodoptera littoralis (Egyptian Cotton Leafworm) cotton leaf disc spray test; type: in vivo; conditions: foliar, 72 h, 200 ppm spray on cotton leaf discs, L1 larvae, mortality, feeding behavior, growth regulation 3 DAT
[3] = test system: Myzus persicae; test: Myzus persicae (Green Peach Aphid) sunflower leaf disc spray test; type: in vivo; conditions: foliar, 144 h, 200 ppm spray on sunflower leaf discs, aphid population of mixed ages, 6 DAT, mortality
[4] = test system: Tetranychus urticae; test: Tetranychus urticae (Two-Spotted Spider Mite) bean leaf disc spray test; type: in vivo; conditions: foliar, 192 h, 200 ppm spray on bean leaf discs, mite populations of mixed ages, 8 days, egg, larval and adult mortality, read-out: control of Tetranychus urticae
[5] = test system: Thrips tabaci; test: Thrips tabaci (Onion Thrips) sunflower leaf disc spray test; type: in vivo; conditions: foliar, 168 h, 200 ppm spray on sunflower leaf discs, population of mixed ages, 7 days, mortality
[6] = test system: Diabrotica balteata; test: Diabrotica balteata (Corn Root Worm) artificial diet MTP test; type: in vivo; conditions: 120 h, 200 ppm (concentration in well 18 ppm), L2 larvae, 5 days, larval mortality, growth regulation
[7] = test system: Heliothis virescens; test: Heliothis virescens (Tobacco Budworm) egg test on artificial diet; type: in vivo; conditions: 96 h, 200 ppm (concentration in well 18 ppm), eggs 0-24 h old on artificial diet, 4 days, egg mortality, larval mortality, growth regulation

Compound | melting point [°C] | pest or weed control at 200 ppm [1] [%] | pest or weed control at 200 ppm [2] [%] | pest or weed control at 200 ppm [3] [%] | pest or weed control at 200 ppm [4] [%] | pest or weed control at 200 ppm [5] [%] | pest or weed control at 200 ppm [6] [%] | pest or weed control at 200 ppm [7] [%]
COc1c(NC(=O)c2cc(C)c([N+](=O)[O-])c(C)c2)cccc1C(=O)Nc1c(Cl)cc(C(F)(C(F)(F)F)C(F)(F)C(F)(F)F)cc1Br (stereo not drawn) [B165] | 218 |  |  |  |  |  |  | 
COc1c(NC(=O)c2ccc(C#N)cn2)cccc1C(=O)Nc1c(Cl)cc(C(F)(C(F)(F)F)C(F)(F)C(F)(F)F)cc1Br (stereo not drawn) [B208] | 208 to 210 |  |  |  |  |  |  | 
COc1cc([N+](=O)[O-])ccc1C(=O)Nc1cccc(C(=O)Nc2c(Cl)cc(C(F)(C(F)(F)F)C(F)(F)C(F)(F)F)cc2Br)c1OC (stereo not drawn) [B177] | 190 |  |  |  |  |  |  | 
COc1c(NC(=O)c2cnc(Cl)nc2Cl)cccc1C(=O)Nc1c(Cl)cc(C(F)(C(F)(F)F)C(F)(F)C(F)(F)F)cc1Br (stereo not drawn) [B210] | 114 to 115 |  |  |  |  |  |  | 
COc1c(NC(=O)c2ccc(C)cc2)cccc1C(=O)Nc1c(Cl)cc(C(F)(C(F)(F)F)C(F)(F)C(F)(F)F)cc1Cl (stereo not drawn) [C8] |  | ≥ 80 | ≥ 80 | ≥ 80 | ≥ 80 | ≥ 80 | ≥ 80 | ≥ 80
COc1c(NC(=O)c2ccncc2C)cccc1C(=O)Nc1c(Cl)cc(C(F)(C(F)(F)F)C(F)(F)C(F)(F)F)cc1Br (stereo not drawn) [B82] |  | ≥ 80 | ≥ 80 | ≥ 80 | ≥ 80 | ≥ 80 | ≥ 80 | ≥ 80
COc1c(NC(=O)c2cc([N+](=O)[O-])c(F)cc2C)cccc1C(=O)Nc1c(Cl)cc(C(F)(C(F)(F)F)C(F)(F)C(F)(F)F)cc1Br (stereo not drawn) [B212] | 83 to 84 |  |  |  |  |  |  | 
COc1c(NC(=O)c2cc(F)ccc2F)cccc1C(=O)Nc1c(Cl)cc(C(F)(C(F)(F)F)C(F)(F)C(F)(F)F)cc1Br (stereo not drawn) [B153] |  | ≥ 80 | ≥ 80 | ≥ 80 | ≥ 80 | ≥ 80 | ≥ 80 | ≥ 80
COc1c(NC(=O)c2c(C)cc(Cl)cc2Cl)cccc1C(=O)Nc1c(Cl)cc(C(F)(C(F)(F)F)C(F)(F)C(F)(F)F)cc1Br (stereo not drawn) [B211] | 113 to 118 |  |  |  |  |  |  | 
COc1c(NC(=O)c2ccccc2C)cccc1C(=O)Nc1c(Cl)cc(C(F)(C(F)(F)F)C(F)(F)C(F)(F)F)cc1Cl (stereo not drawn) [C4] |  | ≥ 80 | ≥ 80 | ≥ 80 | ≥ 80 | ≥ 80 | ≥ 80 | ≥ 80
COc1c(NC(=O)c2cc(C)nn2C)cccc1C(=O)Nc1c(Cl)cc(C(F)(C(F)(F)F)C(F)(F)C(F)(F)F)cc1Br (stereo not drawn) [B42] |  | ≥ 80 | ≥ 80 | ≥ 80 | ≥ 80 | ≥ 80 | ≥ 80 | ≥ 80
COc1c(NC(=O)c2cncnc2)cccc1C(=O)Nc1c(Cl)cc(C(F)(C(F)(F)F)C(F)(F)C(F)(F)F)cc1Br (stereo not drawn) [B111] |  | ≥ 80 | ≥ 80 | ≥ 80 | ≥ 80 | ≥ 80 | ≥ 80 | ≥ 80
COc1c(NC(=O)c2ccc([N+](=O)[O-])cc2)cccc1C(=O)Nc1c(C)cc(C(F)(C(F)(F)F)C(F)(F)F)cc1C [K2] |  | ≥ 80 | ≥ 80 | ≥ 80 | ≥ 80 | ≥ 80 | ≥ 80 | ≥ 80
COc1c(NC(=O)c2ccc(C#N)cc2)cccc1C(=O)Nc1c(Cl)cc(C(F)(C(F)(F)F)C(F)(F)C(F)(F)F)cc1Cl (stereo not drawn) [C6] |  | ≥ 80 | ≥ 80 | ≥ 80 | ≥ 80 | ≥ 80 | ≥ 80 | ≥ 80
CCOc1cc(C(=O)Nc2cccc(C(=O)Nc3c(Cl)cc(C(F)(C(F)(F)F)C(F)(F)C(F)(F)F)cc3Br)c2OC)ccc1[N+](=O)[O-] (stereo not drawn) [B173] | 238 |  |  |  |  |  |  | 
COc1c(NC(=O)c2ccc(C#N)cc2)cccc1C(=O)Nc1c(Cl)cc(C(F)(C(F)(F)F)C(F)(F)F)cc1Cl [E4] |  | ≥ 80 | ≥ 80 | ≥ 80 | ≥ 80 | ≥ 80 | ≥ 80 | ≥ 80
CCc1cc(C(F)(C(F)(F)F)C(F)(F)C(F)(F)F)cc(C)c1NC(=O)c1cccc(NC(=O)c2ccc(C#N)cc2)c1OC (stereo not drawn) [A4, N-[2-ethyl-4-(1,2,2,3,3,3-hexafluoro-1-trifluoromethylpropyl)-6-methyl-phenyl]-3-(4-cyanobenzoylamino)-2-methoxybenzamide] |  | ≥ 80 | ≥ 80 | ≥ 80 | ≥ 80 | ≥ 80 | ≥ 80 | ≥ 80
COc1c(NC(=O)c2c(Cl)cc(Br)cc2Cl)cccc1C(=O)Nc1c(Cl)cc(C(F)(C(F)(F)F)C(F)(F)C(F)(F)F)cc1Br (stereo not drawn) [B209] | 250 |  |  |  |  |  |  | 
COc1c(NC(=O)c2cc(F)cc(F)c2)cccc1C(=O)Nc1c(Cl)cc(C(F)(C(F)(F)F)C(F)(F)C(F)(F)F)cc1Br (stereo not drawn) [B168] |  | ≥ 80 | ≥ 80 | ≥ 80 | ≥ 80 | ≥ 80 | ≥ 80 | ≥ 80
COc1c(NC(=O)c2ccc([N+](=O)[O-])c(N)c2)cccc1C(=O)Nc1c(Cl)cc(C(F)(C(F)(F)F)C(F)(F)C(F)(F)F)cc1Br (stereo not drawn) [B174] |  | ≥ 80 | ≥ 80 | ≥ 80 | ≥ 80 | ≥ 80 | ≥ 80 | ≥ 80
COc1c(NC(=O)c2ccc(F)cc2)cccc1C(=O)Nc1c(Cl)cc(C(F)(C(F)(F)F)C(F)(F)F)cc1Cl [E17] |  | ≥ 80 | ≥ 80 | ≥ 80 | ≥ 80 | ≥ 80 | ≥ 80 | ≥ 80
